# Assay results as given in patent publication US7994307B2, “RNAi modulation of the BCR-ABL fusion gene and uses thereof” (Alnylam Pharmaceuticals, Inc., priority 2004, dated 2011).
# “Also recorded” adds a separate entry of the source.
# How the values were obtained:
# p210Bcr-Abl (e14a2) = experiment: Western blot of Bcr-Abl protein in 32Dp210/e14a2 cells after siRNA electroporation; assay type: cell-based, murine; settings: for Bcr-Abl protein levels: 32Dp210/e14a2 cells
# Procedure: Protein assay: Western blot analysis was performed ˜24 h following the last siRNA -treatment or ˜96 hours following transfection with the pSUPER siRNA-expression vector as described (Goetz A W, et al., Cancer Res. 2001, 61:7635)
# (§1) siRNA-transfection: siRNAs were transfected into the murine cell lines 32Dp210Bcr-Abl-e14a2, -e13a2, 32Dp190Bcr-Abl-e1a2 and the human leukemic cell line MEG-01 using electroporation. Cell density was adjusted to 2.5-5×10^6/ml in RPMI/10% FCS. 800 μl of this cell suspension were mixed with siRNA in a 4 mm electroporation cuvette. Cells were electroporated by means of an EasyJect electroporator (peqlab, Erlangen, Germany) using a single-pulse protocol (250 V, 1800 μF, 8.). This treatment was repeated in intervals of 24 hours as indicated.
# (§2) In 32Dp210Bcr-Abl-e14a2, -e13a2 and 32Dp190Bcr-Abl-e1a2 inhibition of Bcr-Abl can be compensated by addition of exogenous growth factor to the medium. Therefor, recombinant murine IL-3, (1 ng/ml) was added to the growth medium during siRNA treatment of these cell lines. Following the last siRNA treatment cells were washed and factor deprived before starting the different examination procedures (Western blot/MTT).
# We used three murine hematopoetic 32D cell lines expressing either p210Bcr-Abl (e14a2), p210Bcr-Abl (e13a2) or p190Bcr-Abl (e1a2) to study the effectiveness of siRNAs to silence each of these human Bcr-Abl fusion breakpoint variants. In addition, experiments were performed in human Ph+leukemia cells (K562, MEG-01). All siRNAs used were directed to breakpoints of the Bcr and Abl sequence of the respective Bcr-Abl mRNA. RNAi-efficiency was assayed via analysis of Bcr-Abl protein levels and by monitoring the biological effect using MTT viability assay.
# 32Dp210/e14a2 cells = experiment: MTT viability assay in 32Dp210/e14a2 cells after siRNA electroporation; assay type: cell-based, murine
# Procedure: (§3) Survival Assay: Following the last siRNA treatment cells were seeded in 96 well plates and cultivated for another ˜48 hours. Cell survival was then measured by MTT assay as described (Van der Kuip H, et al., Blood. 2001, 98:1532)
# as §1, §2
# K562 cells = experiment: Viability/growth of K562 cells after lipofection with siRNA; assay type: cell-based, human
# Procedure: as §3
# For the transfection of siRNA molecules into the human K562 cells we used Lipofectamin™ 2000 (Invitrogen, Karlsruhe). 1.5 Mio. cells were plated in 1.5 ml RPMI/10% FCS w/o antibiotics into a 6 well plate. For each well 500 μl transfection solution was prepared, containing 8.4 μg siRNA and 21 μl Lipofectamin in OPTI-MEM I reduced serum medium (Gibco, Karlsruhe). The cells were incubated 5 hours with the transfection solution, then the medium was changed to RPMI/10% FCS complemented with Penicillin/Streptomycin. When treated several times, cells were counted ˜24 h following treatment, diluted to 1 Mio/ml and seeded again in a 6 well plate (1.5 ml cell suspension per well). Transfection was then repeated exactly as the day before.
# Bcr-Abl (e14a2) = experiment: Western blot of Bcr-Abl protein in primary CD34 positive cells of CML patients (e14a2); assay type: cell-based, human; settings: two electroporations, compared to BAF8 or BAF16
# Bcr-Abl (e14a2), sequence (P11274+P00519 fused): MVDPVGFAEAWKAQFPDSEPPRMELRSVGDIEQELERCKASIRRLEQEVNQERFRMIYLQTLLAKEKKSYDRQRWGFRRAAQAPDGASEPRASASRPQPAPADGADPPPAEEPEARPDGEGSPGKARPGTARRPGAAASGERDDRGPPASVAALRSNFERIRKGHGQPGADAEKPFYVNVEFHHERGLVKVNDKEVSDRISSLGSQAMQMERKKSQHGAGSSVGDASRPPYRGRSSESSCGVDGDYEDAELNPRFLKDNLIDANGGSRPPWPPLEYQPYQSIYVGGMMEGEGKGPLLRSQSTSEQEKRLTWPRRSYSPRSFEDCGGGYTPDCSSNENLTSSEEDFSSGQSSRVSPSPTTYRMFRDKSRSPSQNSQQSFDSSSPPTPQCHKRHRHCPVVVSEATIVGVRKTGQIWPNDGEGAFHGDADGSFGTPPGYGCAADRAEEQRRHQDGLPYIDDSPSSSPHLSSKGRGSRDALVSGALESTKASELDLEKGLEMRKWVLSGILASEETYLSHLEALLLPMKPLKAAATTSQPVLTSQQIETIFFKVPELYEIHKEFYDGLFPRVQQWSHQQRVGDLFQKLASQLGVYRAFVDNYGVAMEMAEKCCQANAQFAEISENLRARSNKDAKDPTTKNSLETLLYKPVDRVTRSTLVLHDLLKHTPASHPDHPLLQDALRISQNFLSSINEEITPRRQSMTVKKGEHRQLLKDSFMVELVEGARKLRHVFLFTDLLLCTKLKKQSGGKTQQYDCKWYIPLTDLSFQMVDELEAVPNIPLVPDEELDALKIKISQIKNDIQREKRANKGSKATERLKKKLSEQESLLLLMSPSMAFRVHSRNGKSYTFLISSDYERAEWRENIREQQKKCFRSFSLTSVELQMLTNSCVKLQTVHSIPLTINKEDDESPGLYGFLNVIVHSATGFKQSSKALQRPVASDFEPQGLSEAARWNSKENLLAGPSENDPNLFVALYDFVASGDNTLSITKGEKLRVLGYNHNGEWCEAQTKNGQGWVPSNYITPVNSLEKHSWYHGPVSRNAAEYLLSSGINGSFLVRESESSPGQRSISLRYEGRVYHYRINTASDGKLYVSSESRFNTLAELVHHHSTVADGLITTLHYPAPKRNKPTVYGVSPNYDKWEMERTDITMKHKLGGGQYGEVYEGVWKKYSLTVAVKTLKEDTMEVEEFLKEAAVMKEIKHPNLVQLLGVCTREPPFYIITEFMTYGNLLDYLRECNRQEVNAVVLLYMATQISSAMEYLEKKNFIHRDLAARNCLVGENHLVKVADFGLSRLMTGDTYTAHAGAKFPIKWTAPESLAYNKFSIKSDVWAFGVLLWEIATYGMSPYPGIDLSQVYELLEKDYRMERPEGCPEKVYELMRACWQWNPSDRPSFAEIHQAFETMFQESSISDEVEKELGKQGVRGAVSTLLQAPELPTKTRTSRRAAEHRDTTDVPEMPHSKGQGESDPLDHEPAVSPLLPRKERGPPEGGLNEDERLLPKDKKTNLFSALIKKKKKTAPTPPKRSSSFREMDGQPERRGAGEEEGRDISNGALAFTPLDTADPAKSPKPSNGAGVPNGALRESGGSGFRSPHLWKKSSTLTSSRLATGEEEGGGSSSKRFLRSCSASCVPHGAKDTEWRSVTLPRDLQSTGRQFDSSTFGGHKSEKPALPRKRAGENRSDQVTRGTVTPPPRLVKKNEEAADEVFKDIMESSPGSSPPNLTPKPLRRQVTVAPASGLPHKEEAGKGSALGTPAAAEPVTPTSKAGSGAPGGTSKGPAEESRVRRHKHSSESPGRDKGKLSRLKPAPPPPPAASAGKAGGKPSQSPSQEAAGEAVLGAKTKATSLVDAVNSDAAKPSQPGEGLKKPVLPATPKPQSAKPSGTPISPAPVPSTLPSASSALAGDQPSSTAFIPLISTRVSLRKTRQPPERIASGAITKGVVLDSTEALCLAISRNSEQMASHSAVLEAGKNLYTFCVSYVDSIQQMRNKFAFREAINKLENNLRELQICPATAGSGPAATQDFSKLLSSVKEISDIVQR
# Procedure: FIG. 4: CD34 positive cells isolated from 3 newly diagnosed and untreated Philadelphia chromosome-positive CML patients in chronic phase and positive for bcr-abl-e14a2 by Ficoll-Hypaque density gradient centrifugation and affinity column purification were treated with siRNAs BAF7 (e14a2 specific, Patient 1), BAF8 (mismatch control, Patient 1), BAF12 (e14a2 specific, Patient 2+3), and BAF16 (e13a2 specific, Patient 2+3). Cells were diluted to a density of 2.5×10^6 in 800 μl growth medium, mixed with 12.8 μl of a 50 μM solution of the respective siRNA in a 4-mm electroporation cuvette, and electroporated using a single pulse protocol (250V, 1800 μF). This treatment was repeated after 24 hours, the cells were washed, incubated for another 24 hours, and harvested for western blot analysis. […] Additionally, BAF12 treatment compromised Bcr-Abl activity.
# CD34 positive cells were isolated from 3 newly diagnosed and untreated Philadelphia chromosome-positive CML patients in chronic phase. Informed consent was obtained by the patients prior to collection of cells. Mononuclear cells were harvested by Ficoll-Hypaque density gradient centrifugation (Seromed, Berlin, Germany). CD34 positive cells were isolated using a stem cell isolation kit and a MACS column (Miltenyi Biotech, Bergisch Gladbach, Germany) according to manufacturer's instructions. […]
# M07p210/e14a2 cells = experiment: Induction of apoptosis by imatinib mesylate in M07p210/e14a2 cells; assay type: cell-based, human; settings: BAF7-treated
# p210Bcr-Abl (e14a2), sequence (P11274+P00519 fused): as above
substance,measurement,setting,value
"BAF7: siRNA duplex, sense SEQ ID No. 1, antisense SEQ ID No. 23, specific for Bcr-Abl-e14a2 (sense CAGAGUUCAAAAGCCCUUCAG; antisense CUGAAGGGCUUUUGAACUCUGCU; listed as RNA, chemistry not given here)",Bcr-Abl protein levels,p210Bcr-Abl (e14a2); four consecutive treatments at intervals of 24 h,reduced the amount of Bcr-Abl protein to the detection limit; also recorded: almost complete disappearance of Bcr-Abl protein
same,Bcr-Abl protein levels,"p210Bcr-Abl (e14a2); single siRNA treatment, Western blot",notable reduction; also recorded: significant reduction
same,recovery of Bcr-Abl protein levels,"p210Bcr-Abl (e14a2); 32Dp210Bcr-Abl (e14a2) cells, after one single treatment",quickly recovered to pre-treatment levels
same,viability,32Dp210/e14a2 cells; four treatments,virtual loss of viability; also recorded: virtually complete loss of viability
same,"viability relative to electroporation control cells (EPC, 100%)","32Dp210/e14a2 cells; single treatment, MTT",approximately 59%
same,viability relative to EPC,"32Dp210/e14a2 cells; treated four times, MTT",≤ 2.5%
same,growth,"K562 cells; K562, 48 hours following one single treatment, lipofectamin 2000",only a minimal growth reduction
same,viability,"K562 cells; K562, 48 hours following the third lipofection at intervals of 24 hours",45%
same,Bcr-Abl protein levels,Bcr-Abl (e14a2),significant reduction
same,induction of apoptosis by 0.05 μM imatinib mesylate in siRNA-treated cells,M07p210/e14a2 cells,significant induction of apoptosis
